Reference: patent publication US20080207447A1, “Cyanopyridine Pesticides” (BASF Aktiengesellschaft, priority 2005, published 2008)

What was measured:
Type in all cases: in vivo
[1] = system: Green Peach Aphid (Myzus persicae), mixed life stages; experiment: Green peach aphid (Myzus persicae), mixed life stages, bell pepper leaf dip test; conditions: foliar, 120 h, infested bell pepper leaves dipped, determined after 5 days, read-out: mortality of green peach aphid in comparison with untreated controls
Method: (§1) The active compounds were formulated in a mixture of 50 vol.-% acetone:50 vol.-% water. A nonionic surfactant (Kinetic®) was included in the solution at a volume of 0.01% v/v.
(§2) In the following tests, the formulated solutions of the active compounds were diluted to an active ingredient concentration of 300 ppm and the diluted solutions were applied in the below mentioned tests.
(§3) II.1 Cotton Aphid (Aphis gossypil), Mixed Life Stages • Cotton plants at the cotyledon stage were infested prior to treatment by placing a heavily infested leaf from the main aphid colony on top of each cotyledon. The aphids were allowed to transfer overnight and the host leaf was removed. The infested cotyledons were then dipped and agitated in the test solution for 3 seconds and allowed to dry in a fume hood. […] Aphid mortality on the treated plants, relative to mortality on untreated check plants, was determined after 5 days. • In this test compounds each of examples 12 to 36, 38, 39, 40 and 41 at 300 ppm provided at least 90% mortality of cotton aphid (Aphis gossypii, mixed life stages) in comparison with untreated controls. […] Aphid mortality on the treated plants, relative to mortality on untreated check plants, was determined after 5 days. • In this test compounds each of examples 12 to 36, 38, 39, 40 and 41 at 300 ppm provided at least 90% mortality of green peach aphidin comparison with untreated controls. […]

[2] = system: Bean Aphid (Aphis fabae); experiment: Bean aphid (Aphis fabae), nasturtium plant dip test; conditions: 72 h, infested nasturtium plants dipped, determined after 3 days, read-out: mortality of bean aphid in comparison with untreated controls
[3] = system: Cotton Aphid (Aphis gossypii), mixed life stages; experiment: Cotton aphid (Aphis gossypii), mixed life stages, cotyledon dip test; conditions: 120 h, infested cotton cotyledons dipped, determined after 5 days, read-out: mortality of cotton aphid in comparison with untreated controls
Method: as §1, §2, §3

Measured: mortality at 300 ppm

Cc1cncc(S(=O)(=O)N(C)C)c1C#N [Example 12, 4-Cyano-5-methyl-pyridine-3-sulfonic acid dimethylamide]
≥ 90%: all assays above
